# Reference: PMC5719086, “Effective in vivo gene delivery with reduced toxicity, achieved by charge and fatty acid -modified cell penetrating peptide” (Scientific Reports, 2017)
# Read-outs that look alike come from different tables or passages of the source. Square brackets hold non-standard residues; d marks the D form. Peptide text beside a SMILES is read from it. * marks the point of attachment. Docosanoyl = CCCCCCCCCCCCCCCCCCCCCC(=O)*; Stearoyl = CCCCCCCCCCCCCCCCCC(=O)*; Decanoyl = CCCCCCCCCC(=O)*; Orn = NCCC[C@H](N)C(=O)O
# Tests used:
# proteinase K = molecular target: T1, proteinase K (Parengyodontium album, UniProt P06873); assay: Proteinase K treatment of CPP/pDNA complexes; type: in vitro ADME; details: 26 °C; for stability of the complexes against proteinase K (in words): CPP/pDNA complexes at N/P2, accessible pDNA over time by intercalating dye; for Proteinase K: t1/2 (min) of the complexed pDNA (95%CI): CPP/pDNA complexes at N/P2 in MQ, proteinase K ~2.4 U per well, accessible pDNA by PicoGreen fluorescence, normalized to free pDNA
# T1 construct: purchased Thermo Scientific
# T1 sequence (P06873 106-384): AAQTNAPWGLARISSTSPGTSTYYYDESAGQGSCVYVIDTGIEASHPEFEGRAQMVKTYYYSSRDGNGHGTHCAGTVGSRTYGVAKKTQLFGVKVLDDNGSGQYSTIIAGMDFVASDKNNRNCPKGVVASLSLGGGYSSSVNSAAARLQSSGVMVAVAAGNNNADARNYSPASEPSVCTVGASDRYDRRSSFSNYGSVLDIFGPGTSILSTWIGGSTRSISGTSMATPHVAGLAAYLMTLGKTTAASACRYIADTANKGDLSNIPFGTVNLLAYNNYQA
# Procedure: For the proteinase K treatment, 30 μl of pre-formed CPP/pDNA complex solution (0.3, 0.2, 0.1 and 0.05 µg of pDNA per sample) or CPP in MQ was transferred to a black 96-well plate and 90 µl of MQ was added. After a short period of mixing, fluorescent DNA intercalating dye dilution was added (Quant-iT™ PicoGreen®, ThermoFisher Scientific) and incubated for 5 minutes at room temperature. The fluorescence was measured (Synergy MX, BioTek; λex 492 and λem 535) to quantify the initial accessibility of pDNA. Thereafter 10 μl of Proteinase K (Thermo Scientific) was added with the final enzyme concentration ~2.4 U per well. Fluorescence was measured over an indicated period at 26 °C. The readings were normalized against the fluorescence of free pDNA.
# [1] = Complex stability in FBS, gel shift assay; details: 37 °C; for pDNA migration from complexes after 48 h in serum (in words): serum and/or triton + heparin dissociation
# Procedure: Then the samples were mixed with the DNA loading dye and electrophoresed exactly as stated above in the Gel shift assay description, using 0.1 µg of pDNA per lane. ZipRuler Express DNA Ladder 2 (ThermoFisher Scientific) was added to each gel.
# The stability of the complexes after incubation in FBS, visualized by gel shift assay.
# mouse RBC = assay: Hemolysis assay (activity towards cell membranes); type: cell-based; details: 1 h 37 °C, triplicates
# Procedure: The ability of the peptides to lyse the red blood cells (RBC) in PBS was used as a measure of membrane activity. To obtain fresh mouse RBC, blood was collected from the saphenous vein using sodium-heparinized (80 iu/ml ± 30%) blood collection capillaries (Marienfeld, Germany) and transferred to heparinized blood collecting tubes (Sarstedt, Germany). To isolate RBCs, the whole blood was centrifuged for 15 minutes at 300 × g, followed by removal of the plasma. The RBCs were then washed three times with 1 × PBS (RBC pelleting with 15 minutes at 300 × g). The resulting RBCs were then resuspended in PBS at 4% (v/v).
# For the analysis, 200 μl of RBC suspension was added to 200 μl of peptide solution or peptide/pDNA complexes in 5% glucose (final RBC concentration 2%) and gently vortexed. The peptide/pDNA complexes were prepared using a fixed 1 μg of pDNA and varying amount of the peptide. Following this, samples were incubated for 1 hour at 37 °C with gentle stirring. After incubation, the RBCs were pelleted (15 minutes at 300 × g) and the amount of hemoglobin in the supernatant was assessed by measuring the absorbance at 540 nm using a 96-well microplate reader. The experiments were conducted in triplicates.
# 100% of hemolysis was defined as the RBCs treated with 0.1% Triton-X100 in PBS and 0% was obtained with cells incubated in 5% glucose solution. % of hemolysis was calculated by the formula: % Hemolysis = [(Asample − Aglucose)/Atriton − Aglucose)] × 100.
# [2] = naked peptide in 5% glucose, mouse RBC 2% final in PBS, hemoglobin absorbance 540 nm, 100% = 0.1% Triton X-100, read-out: EC50 (μM) of CPP (membrane activity, concentration required to lyse 50% of the cells)
# [3] = peptide/pDNA complexes, fixed 1 μg pDNA and varying peptide, mouse RBC 2% final, absorbance 540 nm, read-out: EC50 (μM) of CPP/pDNA (membrane activity)
compound,measurement,setting,value
CC(C)C[C@H](NC(=O)[C@H](CC(C)C)NC(=O)[C@H](CCCN)NC(=O)[C@H](CCCN)NC(=O)[C@H](CC(C)C)NC(=O)[C@H](C)NC(=O)[C@H](C)NC(=O)[C@H](C)NC(=O)[C@H](C)NC(=O)[C@H](CC(C)C)NC(=O)[C@H](CCCN)NC(=O)[C@H](CCCN)NC(=O)[C@H](CC(C)C)NC(=O)[C@H](CC(C)C)NC(=O)[C@H](CCCCN)NC(=O)CNC(=O)[C@H](CC(C)C)NC(=O)[C@H](CC(C)C)NC(=O)[C@H](Cc1ccc(O)cc1)NC(=O)CNC(=O)[C@H](C)N)C(N)=O [C0-PF14] (H-AGYLLGKLL[Orn][Orn]LAAAAL[Orn][Orn]LL-NH2),stability of the complexes against proteinase K (in words),proteinase K,clearly a favorable substrate to the proteinase
same,Proteinase K: t1/2 (min) of the complexed pDNA (95%CI),proteinase K,0.5 (−0.8 ± 1.5) min
same,time to pDNA degradation (DNA smear) in serum,"[1]; 50% FBS, EtBr",about 24 h
same,onset of DNA migration from complexes in serum,"[1]; complexes N/P2 (jetPEI N/P8) in 50% FBS, EtBr",≤ 0.5 h
same,EC50,mouse RBC; [2],5.36 µM
same,EC50,mouse RBC; [3],7.09 µM
CCCCCCCCCCCCCCCCCCCCCC(=O)N[C@@H](C)C(=O)NCC(=O)N[C@@H](Cc1ccc(O)cc1)C(=O)N[C@@H](CC(C)C)C(=O)N[C@@H](CC(C)C)C(=O)NCC(=O)N[C@@H](CCCCN)C(=O)N[C@@H](CC(C)C)C(=O)N[C@@H](CC(C)C)C(=O)N[C@@H](CCCN)C(=O)N[C@@H](CCCN)C(=O)N[C@@H](CC(C)C)C(=O)N[C@@H](C)C(=O)N[C@@H](CCCN)C(=O)N[C@@H](CCCN)C(=O)N[C@@H](C)C(=O)N[C@@H](CC(C)C)C(=O)N[C@@H](CCCN)C(=O)N[C@@H](CCCN)C(=O)N[C@@H](CC(C)C)C(=O)N[C@@H](CC(C)C)C(N)=O [C22-PF14-O] (Docosanoyl-AGYLLGKLL[Orn][Orn]LA[Orn][Orn]AL[Orn][Orn]LL-NH2),stability of the complexes against proteinase K (in words),proteinase K,virtually inaccessible to the enzyme
same,pDNA migration from complexes after 48 h in serum (in words),[1]; 50% FBS,migration of pDNA from some of the complexes could be observed
CCCCCCCCCCCCCCCCCC(=O)N[C@@H](C)C(=O)NCC(=O)N[C@@H](Cc1ccc(O)cc1)C(=O)N[C@@H](CC(C)C)C(=O)N[C@@H](CC(C)C)C(=O)NCC(=O)N[C@@H](CCCCN)C(=O)N[C@@H](CC(C)C)C(=O)N[C@@H](CC(C)C)C(=O)N[C@@H](CCCN)C(=O)N[C@@H](CCCN)C(=O)N[C@@H](CC(C)C)C(=O)N[C@@H](C)C(=O)N[C@@H](CCCN)C(=O)N[C@@H](CCCN)C(=O)N[C@@H](C)C(=O)N[C@@H](CC(C)C)C(=O)N[C@@H](CCCN)C(=O)N[C@@H](CCCN)C(=O)N[C@@H](CC(C)C)C(=O)N[C@@H](CC(C)C)C(N)=O [PF14-O] (Stearoyl-AGYLLGKLL[Orn][Orn]LA[Orn][Orn]AL[Orn][Orn]LL-NH2),Proteinase K: t1/2 (min) of the complexed pDNA (95%CI),proteinase K,94.2 (90.7 ± 97.4) min
same,pDNA migration from complexes after 48 h in serum (in words),[1]; 50% FBS,migration of pDNA from some of the complexes could be observed
same,EC50,mouse RBC; [2],0.6 µM
same,EC50,mouse RBC; [3],1.17 µM
CCCCCCCCCCCCCCCCCCCCCC(=O)N[C@@H](C)C(=O)NCC(=O)N[C@@H](Cc1ccc(O)cc1)C(=O)N[C@@H](CC(C)C)C(=O)N[C@@H](CC(C)C)C(=O)NCC(=O)N[C@@H](CCCCN)C(=O)N[C@@H](CC(C)C)C(=O)N[C@@H](CC(C)C)C(=O)N[C@@H](CCCN)C(=O)N[C@@H](CCCN)C(=O)N[C@@H](CC(C)C)C(=O)N[C@@H](C)C(=O)N[C@@H](C)C(=O)N[C@@H](C)C(=O)N[C@@H](C)C(=O)N[C@@H](CC(C)C)C(=O)N[C@@H](CCCN)C(=O)N[C@@H](CCCN)C(=O)N[C@@H](CC(C)C)C(=O)N[C@@H](CC(C)C)C(N)=O [C22-PF14] (Docosanoyl-AGYLLGKLL[Orn][Orn]LAAAAL[Orn][Orn]LL-NH2),Proteinase K: t1/2 (min) of the complexed pDNA (95%CI),proteinase K,162.7 (159.6 ± 166.7) min
same,pDNA migration from complexes after 48 h in serum (in words),[1]; 50% FBS,less migration and less degradation
same,EC50,mouse RBC; [2],0.64 µM
same,EC50,mouse RBC; [3],1.47 µM
CCCCCCCCCC(=O)N[C@@H](C)C(=O)NCC(=O)N[C@@H](Cc1ccc(O)cc1)C(=O)N[C@@H](CC(C)C)C(=O)N[C@@H](CC(C)C)C(=O)NCC(=O)N[C@@H](CCCCN)C(=O)N[C@@H](CC(C)C)C(=O)N[C@@H](CC(C)C)C(=O)N[C@@H](CCCN)C(=O)N[C@@H](CCCN)C(=O)N[C@@H](CC(C)C)C(=O)N[C@@H](C)C(=O)N[C@@H](C)C(=O)N[C@@H](C)C(=O)N[C@@H](C)C(=O)N[C@@H](CC(C)C)C(=O)N[C@@H](CCCN)C(=O)N[C@@H](CCCN)C(=O)N[C@@H](CC(C)C)C(=O)N[C@@H](CC(C)C)C(N)=O [C10-PF14] (Decanoyl-AGYLLGKLL[Orn][Orn]LAAAAL[Orn][Orn]LL-NH2),Proteinase K: t1/2 (min) of the complexed pDNA (95%CI),proteinase K,26.7 (20.1 ± 32.5) min
same,pDNA migration from complexes after 48 h in serum (in words),[1]; 50% FBS,less migration and less degradation
same,EC50,mouse RBC; [2],0.36 µM
same,EC50,mouse RBC; [3],0.86 µM
CCCCCCCCCCCCCCCCCC(=O)N[C@@H](C)C(=O)NCC(=O)N[C@@H](Cc1ccc(O)cc1)C(=O)N[C@@H](CC(C)C)C(=O)N[C@@H](CC(C)C)C(=O)NCC(=O)N[C@@H](CCCCN)C(=O)N[C@@H](CC(C)C)C(=O)N[C@@H](CC(C)C)C(=O)N[C@@H](CCC(=O)O)C(=O)N[C@@H](CCCN)C(=O)N[C@@H](CC(C)C)C(=O)N[C@@H](C)C(=O)N[C@@H](C)C(=O)N[C@@H](C)C(=O)N[C@@H](C)C(=O)N[C@@H](CC(C)C)C(=O)N[C@@H](CCCN)C(=O)N[C@@H](CCCN)C(=O)N[C@@H](CC(C)C)C(=O)N[C@@H](CC(C)C)C(N)=O [PF14-E] (Stearoyl-AGYLLGKLLE[Orn]LAAAAL[Orn][Orn]LL-NH2),Proteinase K: t1/2 (min) of the complexed pDNA (95%CI),proteinase K,16.7 (10.5 ± 21.8) min
same,EC50,mouse RBC; [2],0.67 µM
same,EC50,mouse RBC; [3],2.36 µM
